Laboratory results taken from patent US10519162B2, “6,7-dihydropyrazolo[1,5-α]pyrazin-4(5H)-one compounds and their use as negative allosteric modulators of mGluR2 receptors” (Janssen Pharmaceutica NV, priority 2014, dated 2019).

Legend:
human mGlu2 receptor = molecular target: T1, human mGlu2 receptor (Homo sapiens, UniProt Q14416); assay: [35S]GTPγS binding assay (mGluR2 negative allosteric modulation, glutamate ~EC80 60 μM); format: biochemical; conditions: for Emax: maximal % inhibition relative to the control glutamate response (EC80 glutamate), read-out: GTPγS-hmGluR2 anGT Emax; for IC50: membranes from CHO cells transfected with human mGlu2 receptor, glutamate ~EC80 (60 μM), pIC50 = −log IC50 (M), read-out: GTPγS-hmGluR2 anGT pIC50 (converted)
T1 construct: expressed in transfected cells; host or cells: CHO cells
T1 sequence (Q14416 19-872): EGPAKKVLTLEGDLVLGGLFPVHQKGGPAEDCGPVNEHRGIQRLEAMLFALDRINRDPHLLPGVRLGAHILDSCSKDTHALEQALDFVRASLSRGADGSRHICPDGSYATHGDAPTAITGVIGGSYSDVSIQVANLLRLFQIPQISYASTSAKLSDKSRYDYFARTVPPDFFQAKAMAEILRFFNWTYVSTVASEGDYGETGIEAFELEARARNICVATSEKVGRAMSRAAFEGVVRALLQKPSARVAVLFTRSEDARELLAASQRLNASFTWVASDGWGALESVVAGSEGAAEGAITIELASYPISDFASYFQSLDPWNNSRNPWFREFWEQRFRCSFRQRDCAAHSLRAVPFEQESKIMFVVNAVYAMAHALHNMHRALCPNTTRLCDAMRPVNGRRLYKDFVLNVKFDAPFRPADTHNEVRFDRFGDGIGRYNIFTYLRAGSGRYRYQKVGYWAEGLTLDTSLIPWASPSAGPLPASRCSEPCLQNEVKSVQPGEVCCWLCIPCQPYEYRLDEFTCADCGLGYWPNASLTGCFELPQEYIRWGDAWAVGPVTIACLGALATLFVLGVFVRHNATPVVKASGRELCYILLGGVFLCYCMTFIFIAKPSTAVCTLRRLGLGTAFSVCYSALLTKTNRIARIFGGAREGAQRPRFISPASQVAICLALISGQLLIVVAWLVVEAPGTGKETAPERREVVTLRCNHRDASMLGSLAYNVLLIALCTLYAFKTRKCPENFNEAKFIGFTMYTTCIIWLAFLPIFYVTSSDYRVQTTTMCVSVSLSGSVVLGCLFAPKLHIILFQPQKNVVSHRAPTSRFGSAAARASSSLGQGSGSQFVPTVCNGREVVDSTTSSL
Method: 1) [^35S]GTPγS Binding Assay
[^35S]GTPγS Binding Assay
Total reaction volume was 200 μl. […] Membrane-bound radioactivity was counted in a Topcount.

rats = assay: Reversal of the effect of the mGluR2 PAM JNJ-42153605-induced inhibition of scopolamine-induced hyperlocomotion (SCOP JNJ-42153605); format: in vivo, rat; conditions: Rattus norvegicus; PO (oral route); rats; reversal criterion total distance >1500 cm
Method: 2) Reversal of the Effect of the mGluR2 PAM JNJ-42153605-Induced Inhibition of Scopolamine-Induced Hyperlocomotion Apparatus
Motor activity was measured in microprocessor-based motor activity arenas (closed gray PVC cylinders with a height of 39 cm and a diameter of 31 cm). Each arena was placed on an infrared LED (8×8 LEDs) lit box (white PVC squared box; 40×40 cm^2; height 12.5 cm. An infrared-sensitive tube camera and a white light source were mounted to the ceiling above the observation chamber to track the animal. The total distance traveled (cm) was recorded and analyzed using the Noldus Ethovision XT Video Tracking System (Version 7.0.418; Noldus, Wageningen, The Netherlands). The intensity of the light within the activity cages (measured in the centre at the level of the floor) ranged between 4 and 8 LUX.
The rats were pretreated with test compound or vehicle at 60 min before the start of the activity recordings and placed into individual cages. The rats were challenged with JNJ-42153605 (3-(cyclopropylmethyl)-7-(4-phenylpiperidin-1-yl)-8-(trifluoromethyl)[1,2,4]triazolo[4,3-a]pyridine; WO2010/130424; Cid et al. J. Med. Chem. 2012, 55, 8770-8789) (20 mg/kg, i.v.) 30 min before the start of the activity recording combined with scopolamine (0.16 mg/kg, i.v.) just before the start of the activity measurements. Immediately after the injection of scopolamine, the rats were placed into the activity monitors and total distance travelled over the first 30 min was measured.
Solvent-Pretreated Control Rats.
Animals receiving the combination of JNJ-42153605 and scopolamine (n=433) almost always travelled a distance of less than 1500 cm (<1500 cm) (only 2.5% of the control rats travelled a distance of more than 1500 cm (>1500 cm)). On the other hand, animals challenged with scopolamine alone (n=215) always travelled a total distance of more than 1500 cm (>1500 cm) and almost always (in 95.8% of the rats) a distance of more than 4400 cm (>4400 cm). […] For reversal of the inhibitory effect of JNJ-42153605 on the scopolamine-induced hyperlocomotion, the following all-or-none criteria were adopted: (1) reversal: total distance >1500 cm.

Wiga rats = assay: Induction of mydriasis (MYD); format: in vivo; conditions: Rattus norvegicus, PO (oral route), pupil diameter >25 units, 1-3 h post-administration
Method: 3) Induction of Mydriasis
The pupil diameter of Wiga rats was measured with a microscopic micrometer (1 unit=1/24 mm). Criteria for drug-induced effects: pupil diameter >25 units for mydriasis (in controls: 1.9%) 1, 2 or 3 h post-administration of the test compound (wherein the maximum pupil diameter over the full 3 h period is reported).

| Compound | Emax (human mGlu2 receptor) | IC50 (human mGlu2 receptor) | melting point | ED50 (rats) | ED50 (Wiga rats) |
| --- | --- | --- | --- | --- | --- |
| Cc1cc(C(=O)Nc2cnn3c2C(=O)N(c2ccc(C(F)(F)F)c(Cl)c2)C[C@@H]3C)cc(C)n1 [Co. No. 172] | 110% | 1.32e-09 M | – | 0.32 mg/kg | > 40 mg/kg |
| Cc1cnc(N)c(C(=O)Nc2cnn3c2C(=O)N(c2ccc(C(F)(F)F)c(C)c2)C[C@@H]3C)c1 [Co. No. 197] | 108% | 1.32e-09 M | 190.13 °C | 0.13 mg/kg | > 10 mg/kg |
| C[C@H]1CN(c2ccc(C(F)F)c(Cl)c2)C(=O)c2c(NC(=O)c3ccc(N)nc3)cnn21 [Co. No. 6] | 114% | – | 177 °C | > 2.5 mg/kg | – |
| COc1cncc(C(=O)Nc2cnn3c2C(=O)N(c2ccc(C(F)(F)F)cc2)C[C@@H]3C)n1 [Co. No. 183] | 114% | 2.24e-09 M | 185.23 °C | 0.318 mg/kg | – |
| COc1cc(N2C[C@H](C)n3ncc(NC(=O)c4cccnc4)c3C2=O)ccc1C(F)(F)F [Co. No. 147] | 106% | 1.07e-08 M | 186.11 °C | > 0.63 mg/kg | – |
| C[C@H]1CN(c2ccc(Cl)c(Cl)c2)C(=O)c2c(NC(=O)c3cncc(F)c3)cnn21 [Co. No. 109] | 105% | 1.38e-09 M | 128.16 °C | > 0.63 mg/kg | – |
| CNc1ncccc1C(=O)Nc1cnn2c1C(=O)N(c1ccc(C(F)(F)F)cc1)C[C@@H]2C [Co. No. 194] | 113% | 1.29e-09 M | 161.97 °C | 0.318 mg/kg | – |
| C[C@H]1CN(c2ccc(C(F)(F)F)cc2)C(=O)c2c(NC(=O)c3nccs3)cnn21 [Co. No. 15] | 111% | 3.24e-09 M | 213.94 °C | > 2.5 mg/kg | – |
| Cc1cc(C(=O)Nc2cnn3c2C(=O)N(c2ccc(C(F)(F)F)c(Cl)c2)C[C@@H]3C)nc(N)n1 [Co. No. 181] | 101% | 5.75e-09 M | 258.12 °C | > 0.63 mg/kg | – |
| Cc1cc(N2C[C@H](C)n3ncc(NC(=O)c4ccccn4)c3C2=O)ccc1C(F)(F)F [Co. No. 110] | 107% | 2.34e-09 M | 217.95 °C | > 0.63 mg/kg | – |
| C[C@H]1CN(c2ccc(Cl)c(Cl)c2)C(=O)c2c(NC(=O)c3ccccn3)cnn21 [Co. No. 105] | 109% | 2.63e-09 M | 155.04 °C | > 0.63 mg/kg | – |
| Cc1cc(N2C[C@H](C)n3ncc(NC(=O)c4cnccn4)c3C2=O)ccc1C(F)(F)F [Co. No. 114] | 106% | 2.51e-09 M | 225.49 °C | > 0.63 mg/kg | – |
| C[C@H]1CN(c2ccc(Cl)c(Cl)c2)C(=O)c2c(NC(=O)c3ccc(N)nc3)cnn21 [Co. No. 3] | 110% | 1.62e-09 M | 189.94 °C | 0.32 mg/kg | – |

Further lines, with some results ahead:

| Emax (human mGlu2 receptor) | IC50 (human mGlu2 receptor) | melting point | Compound | ED50 (rats) | ED50 (Wiga rats) |
| --- | --- | --- | --- | --- | --- |
| 108% | 1.7e-09 M | 230.53 °C | C[C@H]1CN(c2ccc(C(F)(F)F)c(Cl)c2)C(=O)c2c(NC(=O)c3cnccn3)cnn21 [Co. No. 176] | 0.32 mg/kg | > 10 mg/kg |
| 106% | 2.19e-09 M | 157.47 °C | C[C@H]1CN(c2ccc(C(F)(F)F)c(Cl)c2)C(=O)c2c(NC(=O)c3cccnc3)cnn21 [Co. No. 100] | 0.8 mg/kg | > 2.5 mg/kg |
| 112% | 1.95e-09 M | 222.34 °C | Cc1cnc(N)c(C(=O)Nc2cnn3c2C(=O)N(c2ccc(C(F)(F)F)cc2)C[C@@H]3C)c1 [Co. No. 191] | 0.318 mg/kg | > 10 mg/kg |
| 109% | 1.82e-09 M | 214.96 °C | C[C@H]1CN(c2ccc(C(F)(F)F)cc2)C(=O)c2c(NC(=O)c3cccnc3N)cnn21 [Co. No. 189] | 0.2 mg/kg | > 10 mg/kg |
| 108% | 3.16e-09 M | 205.19 °C | C[C@H]1CN(c2ccc(S(F)(F)(F)(F)F)cc2)C(=O)c2c(NC(=O)c3cccnc3)cnn21 [Co. No. 175] | 0.318 mg/kg | > 10 mg/kg |
| 107% | 1.82e-09 M | 201.39 °C | C[C@H]1CN(c2ccc(Cl)c(Cl)c2)C(=O)c2c(NC(=O)c3cnccn3)cnn21 [Co. No. 104] | 0.32 mg/kg | 6.6 mg/kg |
| 109% | 1.51e-09 M | 277.76 °C | Cc1cc(C(=O)Nc2cnn3c2C(=O)N(c2ccc(C(F)(F)F)cc2)C[C@@H]3C)cnc1N (racemic) [Co. No. 187] | 0.0794 mg/kg | > 10 mg/kg |
| 106% | 6.46e-09 M | 216.96 °C | C[C@H]1CN(c2ccc(C(F)(F)F)c(C#N)c2)C(=O)c2c(NC(=O)c3ccc(N)nc3)cnn21 [Co. No. 26] | > 2.5 mg/kg | – |
| 110% | 3.02e-09 M | 205.79 °C | C[C@H]1CN(c2ccc(C(F)(F)F)cc2)C(=O)c2c(NC(=O)c3nccnc3N)cnn21 [Co. No. 206, 3-Amino-N-[(7S)-7-methyl-4-oxo-5-[4-(trifluoromethyl)phenyl]-6,7-dihydropyrazolo[1,5-a]pyrazin-3-yl]pyrazine-2-carboxamide] | 0.505 mg/kg | – |
| 109% | 9.55e-09 M | 217.01 °C | C[C@H]1CN(c2ccc(C(F)(F)F)c(F)c2)C(=O)c2c(NC(=O)c3cncc(F)c3)cnn21 [Co. No. 124] | > 0.63 mg/kg | – |
| 107% | 1.66e-09 M | 133.07 °C | COc1cncc(C(=O)Nc2cnn3c2C(=O)N(c2ccc(C(F)(F)F)c(Cl)c2)C[C@@H]3C)c1 [Co. No. 150] | > 0.63 mg/kg | – |
| 113% | 7.08e-09 M | 160.03 °C | COCc1cccc(C(=O)Nc2cnn3c2C(=O)N(c2ccc(C(F)(F)F)cc2)C[C@@H]3C)c1 [Co. No. 30] | > 2.5 mg/kg | – |
| 106% | 3.16e-09 M | 135.98 °C | COc1cncc(C(=O)Nc2cnn3c2C(=O)N(c2ccc(C(F)(F)F)c(C)c2)C[C@@H]3C)c1 [Co. No. 151] | > 0.63 mg/kg | – |
| 106% | 1.35e-08 M | 143.17 °C | COc1cncc(C(=O)Nc2cnn3c2C(=O)N(c2ccc(C(F)(F)F)c(F)c2)C[C@@H]3C)c1 [Co. No. 153] | > 0.63 mg/kg | – |
| 105% | 1.91e-07 M | 181.87 °C | COc1cncc(C(=O)Nc2cnn3c2C(=O)N(c2ccc(C(F)(F)F)cc2)C[C@@H]3C)c1C [Co. No. 122] | > 0.63 mg/kg | – |
| 112% | 7.41e-09 M | 174.59 °C | COc1cncc(C(=O)Nc2cnn3c2C(=O)N(c2ccc(C(F)(F)F)cc2)C[C@@H]3C)c1 [Co. No. 32] | 1.26 mg/kg | – |
| 107% | 8.32e-09 M | 200.3 °C | Cc1ccncc1C(=O)Nc1cnn2c1C(=O)N(c1ccc(C(F)(F)F)c(C)c1)C[C@@H]2C [Co. No. 119] | > 0.63 mg/kg | – |
| 111% | 4.79e-09 M | 213.77 °C | COCc1cc(N2C[C@H](C)n3ncc(NC(=O)c4ccc(N)nc4)c3C2=O)ccc1C(F)(F)F [Co. No. 22] | > 2.5 mg/kg | – |
| 106% | 4.68e-09 M | 128.97 °C | Cc1cc(C(=O)Nc2cnn3c2C(=O)N(c2ccc(C(F)(F)F)c(C)c2)C[C@@H]3C)ccn1 [Co. No. 112] | > 0.63 mg/kg | – |
| 103% | 6.92e-09 M | 163.67 °C | Cc1cncc(C(=O)Nc2cnn3c2C(=O)N(c2ccc(C(F)(F)F)c(F)c2)C[C@@H]3C)c1 [Co. No. 128] | > 0.63 mg/kg | – |
